Assay results reported in ChEMBL document CHEMBL5104197, “Structure-Based Optimization of Coumestan Derivatives as Polyketide Synthase 13-Thioesterase(Pks13-TE) Inhibitors with Improved hERG Profiles for Mycobacterium tuberculosis Treatment” (J Med Chem, 2022).
≈ marks a conversion by molar mass, not a printed value. Calls of active or inactive are those of the source. No cut-off for these calls is given here.

Legend:
[1] = system: Mycobacterium tuberculosis; assay: Binding affinity to wild type Mycobacterium tuberculosis Pks13-TE N1640 expressed in Escherichia coli BL21(DE3) pLysS assessed as change in melting temperature at 1:10 compound to protein ratio by nanoDSF thermal stability analysis
[2] = Metabolic stability in human liver microsomes assessed as half-life measured after 60 mins by LC-MS/MS analysis; type: ADME, Microsome
[3] = Metabolic stability in human liver microsomes assessed as compound remaining measured after 60 mins by LC-MS/MS analysis; type: ADME, Microsome; conditions: read-out: Stability
[4] = Metabolic stability in human liver microsomes assessed as microsomal intrinsic clearance measured after 60 mins by LC-MS/MS analysis; type: ADME, Microsome; conditions: read-out: CLH
[5] = system: Mycobacterium tuberculosis; type: functional, organism-based; conditions: H37Rv, dose 100.0 mg/kg, route po, time 7.0 day
[6] = system: Mycobacterium tuberculosis; assay: Binding affinity to wild type Mycobacterium tuberculosis Pks13-TE N1640 expressed in Escherichia coli BL21(DE3) pLysS assessed as change in melting temperature at 1:5 compound to protein ratio by nanoDSF thermal stability analysis
[7] = system: Mycobacterium tuberculosis; type: functional, Vero; conditions: V4207, 168 h, time 7 day
[8] = system: Mycobacterium tuberculosis; assay: microbe, parasite or virus in culture; conditions: H37Rv, 168 h
[9] = Cytotoxicity against African green monkey Vero cells; type: toxicity, cell-based, Chlorocebus sabaeus
[10] = system: Mycobacterium tuberculosis; type: functional, organism-based; conditions: H37Rv, dose 100.0 mg/kg, route po, time 7.0 day; remark: listed apart in the source
[11] = Metabolic stability in human liver microsomes assessed as liver intrinsic clearance measured after 60 mins by LC-MS/MS analysis; type: ADME, Microsome; conditions: read-out: CLH
[12] = Selectivity index, ratio of CC50 for African green monkey Vero cells to MIC90 for Mycobacterium tuberculosis H37Rv; type: toxicity; conditions: read-out: Selectivity Index

Compound | MIC90 [8] [µg/mL] | also measured
O=c1oc2cc(O)ccc2c2oc3ccc(O)c(CN4CCC(F)CC4)c3c12 | 0.0625 (≈ 0.163 µM) | ΔTm [1]: 7.6 °C; half-life [2]: 0.992 h; remaining at 1 h [3]: 47.4%; CLint scaled [4]: 23.5 mL/min/kg; Activity [5]: Active; ΔTm [6]: 8.8 °C; MIC90 [7]: 0.125 µg/mL (≈ 0.326 µM); IC50 [9]: 4 µg/mL (≈ 10.4 µM); Activity [10]: Active; CLint scaled [11]: 21 mL/min/kg
NNC(=O)c1ccncc1 [ISONIAZID] | 0.04 (≈ 0.292 µM) | 
O=C1CCCCN1Cc1c(O)ccc2oc3c4ccc(O)cc4oc(=O)c3c12 | > 64 | 
CC1(C)CCN(Cc2c(O)ccc3oc4c5ccc(O)cc5oc(=O)c4c23)CC1 | 0.25 (≈ 0.635 µM) | 
COc1ccc2c(c1)oc(=O)c1c2oc2ccc(O)c(CN3CCC(F)(F)CC3)c21 | > 64 | 
O=c1oc2cc(O)ccc2c2oc3ccc(O)c(CNCc4ccccc4)c3c12 | 1 (≈ 2.58 µM) | 
O=c1oc2cc(O)ccc2c2oc3ccc4c(c3c12)CN(C1CC1)CO4 | 0.125 (≈ 0.358 µM) | 
CO[C@H]1/C=C/O[C@@]2(C)Oc3c(C)c(O)c4c(O)c(c(/C=N/N5CCN(C)CC5)c(O)c4c3C2=O)NC(=O)/C(C)=C\C=C\[C@H](C)[C@H](O)[C@@H](C)[C@@H](O)[C@@H](C)[C@H](OC(C)=O)[C@@H]1C [RIFAMPIN] | 0.125 (≈ 0.152 µM) | 
O=c1oc2cc(O)ccc2c2oc3ccc(O)c(CN4CCC(F)(F)C4)c3c12 | > 64 | 
COc1ccc2c(c1)oc(=O)c1c2oc2ccc(O)c(CN3CCC(Br)CC3)c21 | > 64 | 
O=c1oc2cc(O)ccc2c2oc3ccc(O)c(CN4CC[C@H](F)C4)c3c12 | 0.125 (≈ 0.338 µM) | 
O=c1oc2cc(O)ccc2c2oc3ccc(O)c(CN4CCC(Br)CC4)c3c12 | 0.125 (≈ 0.281 µM) | 
COc1ccc2c(c1)oc(=O)c1c2oc2ccc(O)c(CN3CCC(F)(F)C3)c21 | > 64 | 
O=c1oc2cc(O)ccc2c2oc3ccc(O)c(CN4CCCC(F)C4)c3c12 (stereo unspecified) | 0.25 (≈ 0.652 µM) | 
O=c1oc2cc(O)ccc2c2oc3ccc4c(c3c12)CN(CC1CC1)CO4 | 0.0625 (≈ 0.172 µM) | ΔTm [1]: 5.3 °C; ΔTm [6]: 5.4 °C
CC[C@@H](CO)NCCN[C@@H](CC)CO [ETHAMBUTOL] | 1 (≈ 4.89 µM) | 
COc1ccc2c(c1)oc(=O)c1c2oc2ccc(O)c(CN3CCC(C)(C)CC3)c21 | 8 (≈ 19.6 µM) | 
O=c1oc2cc(O)ccc2c2oc3ccc(O)c(CN4CCC(F)(F)CC4)c3c12 | 1 (≈ 2.49 µM) | 
COC(=O)c1c(NC(=O)c2c(F)c(F)c(F)c(F)c2F)sc2c1CCCCC2 |  | MIC [8]: 1 µM (≈ 0.419 µg/mL)
O=c1oc2cc(O)ccc2c2oc3ccc(O)c(CNC4CCCCC4)c3c12 | 0.25 (≈ 0.659 µM) | 
O=c1oc2cc(O)ccc2c2oc3ccc(O)c(CN4CCCC(F)(F)C4)c3c12 | > 64 | 
CC(C)CCN1COc2ccc3oc4c5ccc(O)cc5oc(=O)c4c3c2C1 | 0.0625 (≈ 0.165 µM) | 
O=c1oc2cc(O)ccc2c2oc3ccc(O)c(CN4CCC5(CC4)CC5)c3c12 | 0.25 (≈ 0.639 µM) | 
O=C(c1c(O)ccc2oc3c4ccc(O)cc4oc(=O)c3c12)N1CCCCC1 | > 64 | 
O=c1oc2cc(O)ccc2c2oc3ccc(O)c(CN4CCCCC4)c3c12 | 0.0039 (≈ 0.0107 µM) | ΔTm [1]: 7.2 °C; half-life [2]: 2 h; CLint scaled [4]: 11.5 mL/min/kg; ΔTm [6]: 7 °C; CLint scaled [11]: 10.4 mL/min/kg
O=c1oc2cc(O)ccc2c2oc3ccc(O)c(CNC4CCCC4)c3c12 | 0.0039 (≈ 0.0107 µM) | 
O=c1oc2cc(O)ccc2c2oc3ccc(O)c(CN4CC[C@@H](F)C4)c3c12 | 0.5 (≈ 1.35 µM) | 
CC(C)CCNCc1c(O)ccc2oc3c4ccc(O)cc4oc(=O)c3c12 | 0.125 (≈ 0.34 µM) | 
O=c1oc2cc(O)ccc2c2oc3ccc4c(c3c12)CN(C1CCCC1)CO4 | 0.0039 (≈ 0.0103 µM) | ΔTm [1]: 8.4 °C; half-life [2]: > 2.42 h; remaining at 1 h [3]: 80.9%; CLint scaled [4]: < 9.6 mL/min/kg; Activity [5]: Active; ΔTm [6]: 8.1 °C; MIC90 [7]: 0.0078 µg/mL (≈ 0.0207 µM); selectivity ratio [12]: 32; IC50 [9]: 0.125 µg/mL (≈ 0.331 µM); Activity [10]: Active
